Patent US20240206484A1, “METHOD OF DEVELOPMENT OF SELECTIVE PROBIOTIC GROWTH PROMOTORS AND SELECTIVE PATHOGEN GROWTH INHIBITORS FROM KIMCHI FERMENTATION” (Hannip Inc., priority 2022, published 2024)

Tests used:
L. mesenteroides = experiment: Impact of lactic acid on the effect of BKE-X1 or BKE-X2 on growth, colonies counted; type: cell-based, Leuconostoc mesenteroides; conditions: lactic acid to reduce pH to 3 or less; 48 hours at 30° C.; vs control
Procedure: (§1) To MRS culture medium (1 mL) in a culture tube (15 mL), saline (9 mL), BKE-X1 or BKE-X2 (500 mg), and kimchi bacteria culture solution (select one of L. mesenteroides and L. plantarum) (0.5 mL) were added. The mixture was vortex stirred and cultured for 48 hours at 30° C. To MRS culture medium (1 mL) in another culture tube (15 mL), saline (9 mL), BKE-X1 or BKE-X2 (500 mg), kimchi bacteria culture solution (select one of L. mesenteroides and L. plantarum) (0.5 mL), and lactic acid (to reduce pH to 3 or less) were added. The mixture was vortex stirred and cultured for 48 hours at 30° C. To MRS culture medium (1 mL) in yet another culture tube (15 mL), saline (9 mL), kimchi bacteria culture solution (select one of L. mesenteroides and L. plantarum) (0.5 mL), and lactic acid (to reduce pH to 3 or less) were added. The mixture was vortex stirred and cultured for 48 hours at 30° C. As the control, to MRS culture medium (1 mL) in yet another culture tube (15 mL), saline (9 mL) and kimchi bacteria culture solution (select one of L. mesenteroides and L. plantarum) (0.5 mL) were added. The mixture was vortex stirred and cultured for 48 hours at 30° C. An aliquot (0.5 mL) was collected from each culture medium and serially diluted to 16,000× using saline solution. […] The colonies were counted and photographed, then compared side by side.

L. plantarum = experiment: as above; type: cell-based, Lactobacillus plantarum; conditions: lactic acid to reduce pH to 3 or less; 48 hours at 30° C.; vs control
Procedure: as §1

With `CC(O)C(=O)O` (centres unmarked) [lactic acid] the “growth of L. mesenteroides, lactic acid alone” value (L. mesenteroides) was “negligibly inhibit” and the “growth of L. plantarum, lactic acid alone” value (L. plantarum) was “negligibly promoting”.
